# Measured values: patent US12637499B2, “Adrenomedullin analog, method for producing the same, and pharmaceutical use thereof” (priority 2020, dated 2026)
# Read-outs that look alike come from different tables or passages of the source. Where a SMILES comes first, the peptide text is derived from it. Bridges are numbered along the chain shown (N, C = ends). Where no end group is shown, it is not given here.
# B1: [Phe-44]hAM(13-52) (peptide)
# peptide: SFGCRFGTCTVQKLAHQIYQFTDKDKDNVAPFSKISPQGY-NH2
# modifications: disulfide 4-9; N-terminus assumed
# SMILES: CC[C@H](C)[C@H](NC(=O)[C@H](CCC(N)=O)NC(=O)[C@H](Cc1c[nH]cn1)NC(=O)[C@H](C)NC(=O)[C@H](CC(C)C)NC(=O)[C@H](CCCCN)NC(=O)[C@H](CCC(N)=O)NC(=O)[C@@H](NC(=O)[C@@H](NC(=O)[C@@H]1CSSC[C@H](NC(=O)CNC(=O)[C@H](Cc2ccccc2)NC(=O)[C@@H](N)CO)C(=O)N[C@@H](CCCNC(=N)N)C(=O)N[C@@H](Cc2ccccc2)C(=O)NCC(=O)N[C@@H]([C@@H](C)O)C(=O)N1)[C@@H](C)O)C(C)C)C(=O)N[C@@H](Cc1ccc(O)cc1)C(=O)N[C@@H](CCC(N)=O)C(=O)N[C@@H](Cc1ccccc1)C(=O)N[C@H](C(=O)N[C@@H](CC(=O)O)C(=O)N[C@@H](CCCCN)C(=O)N[C@@H](CC(=O)O)C(=O)N[C@@H](CCCCN)C(=O)N[C@@H](CC(=O)O)C(=O)N[C@@H](CC(N)=O)C(=O)N[C@H](C(=O)N[C@@H](C)C(=O)N1CCC[C@H]1C(=O)N[C@@H](Cc1ccccc1)C(=O)N[C@@H](CO)C(=O)N[C@@H](CCCCN)C(=O)N[C@H](C(=O)N[C@@H](CO)C(=O)N1CCC[C@H]1C(=O)N[C@@H](CCC(N)=O)C(=O)NCC(=O)N[C@@H](Cc1ccc(O)cc1)C(N)=O)[C@@H](C)CC)C(C)C)[C@@H](C)O
# B2: [Gly-44]hAM(13-52) (peptide)
# peptide: SFGCRFGTCTVQKLAHQIYQFTDKDKDNVAPGSKISPQGY-NH2
# modifications: disulfide 4-9; N-terminus assumed
# SMILES: CC[C@H](C)[C@H](NC(=O)[C@H](CCC(N)=O)NC(=O)[C@H](Cc1c[nH]cn1)NC(=O)[C@H](C)NC(=O)[C@H](CC(C)C)NC(=O)[C@H](CCCCN)NC(=O)[C@H](CCC(N)=O)NC(=O)[C@@H](NC(=O)[C@@H](NC(=O)[C@@H]1CSSC[C@H](NC(=O)CNC(=O)[C@H](Cc2ccccc2)NC(=O)[C@@H](N)CO)C(=O)N[C@@H](CCCNC(=N)N)C(=O)N[C@@H](Cc2ccccc2)C(=O)NCC(=O)N[C@@H]([C@@H](C)O)C(=O)N1)[C@@H](C)O)C(C)C)C(=O)N[C@@H](Cc1ccc(O)cc1)C(=O)N[C@@H](CCC(N)=O)C(=O)N[C@@H](Cc1ccccc1)C(=O)N[C@H](C(=O)N[C@@H](CC(=O)O)C(=O)N[C@@H](CCCCN)C(=O)N[C@@H](CC(=O)O)C(=O)N[C@@H](CCCCN)C(=O)N[C@@H](CC(=O)O)C(=O)N[C@@H](CC(N)=O)C(=O)N[C@H](C(=O)N[C@@H](C)C(=O)N1CCC[C@H]1C(=O)NCC(=O)N[C@@H](CO)C(=O)N[C@@H](CCCCN)C(=O)N[C@H](C(=O)N[C@@H](CO)C(=O)N1CCC[C@H]1C(=O)N[C@@H](CCC(N)=O)C(=O)NCC(=O)N[C@@H](Cc1ccc(O)cc1)C(N)=O)[C@@H](C)CC)C(C)C)[C@@H](C)O
# B3: [des-Arg-44]hAM(13-52) (peptide)
# peptide: SFGCRFGTCTVQKLAHQIYQFTDKDKDNVAPSKISPQGY-NH2
# modifications: disulfide 4-9; N-terminus assumed
# SMILES: CC[C@H](C)[C@H](NC(=O)[C@H](CCC(N)=O)NC(=O)[C@H](Cc1c[nH]cn1)NC(=O)[C@H](C)NC(=O)[C@H](CC(C)C)NC(=O)[C@H](CCCCN)NC(=O)[C@H](CCC(N)=O)NC(=O)[C@@H](NC(=O)[C@@H](NC(=O)[C@@H]1CSSC[C@H](NC(=O)CNC(=O)[C@H](Cc2ccccc2)NC(=O)[C@@H](N)CO)C(=O)N[C@@H](CCCNC(=N)N)C(=O)N[C@@H](Cc2ccccc2)C(=O)NCC(=O)N[C@@H]([C@@H](C)O)C(=O)N1)[C@@H](C)O)C(C)C)C(=O)N[C@@H](Cc1ccc(O)cc1)C(=O)N[C@@H](CCC(N)=O)C(=O)N[C@@H](Cc1ccccc1)C(=O)N[C@H](C(=O)N[C@@H](CC(=O)O)C(=O)N[C@@H](CCCCN)C(=O)N[C@@H](CC(=O)O)C(=O)N[C@@H](CCCCN)C(=O)N[C@@H](CC(=O)O)C(=O)N[C@@H](CC(N)=O)C(=O)N[C@H](C(=O)N[C@@H](C)C(=O)N1CCC[C@H]1C(=O)N[C@@H](CO)C(=O)N[C@@H](CCCCN)C(=O)N[C@H](C(=O)N[C@@H](CO)C(=O)N1CCC[C@H]1C(=O)N[C@@H](CCC(N)=O)C(=O)NCC(=O)N[C@@H](Cc1ccc(O)cc1)C(N)=O)[C@@H](C)CC)C(C)C)[C@@H](C)O
# Experiments:
# [1] = 50 nmol/kg subcutaneous, Experiment VI
# Experimental: (§1) Eight-week-old male Wistar rats were purchased from Charles River Laboratories Japan, Inc. The rats were grown with normal feeds in the absence of specific pathogens under cycles of a 12-hour light period and a 12-hour dark period. […] To determine plasma AM concentrations, 50 nmol/kg of AM or an AM analog was subcutaneously administered. A peripheral blood sample was collected from the tail vein into a test tube (containing 21 μg of aprotinin and 0.3 mg of EDTA-2Na) at predetermined times (0, 15, 30, 60, and 120 minutes after administration). The test tube was centrifuged at 1,700×g to afford plasma.
# in vitro [2] = assay: in vitro
# Experimental: After the lapse of a predetermined time, a 30-μl portion was taken out of the reaction solution, transferred into 170 μl of 0.1% aqueous solution of trifluoroacetic acid (TFA), and stored at −80° C. until analysis.
# Quantitative analysis was performed for AM contained in the thus-obtained samples of a reaction mixture with serum or plasma by using specific fluoroimmunoassay (Tosoh Corporation) with two antibodies differing in their recognition sites. […] In the figure, the abscissa represents reaction time (min), and the ordinate represents concentration of AM (UM).
# In the figure, the abscissa represents reaction time (min), and the ordinate represents concentration of AM or an AM analog (μM).
# In the figure, the abscissa represents the type of AM or an AM analog, and the ordinate represents residual rates of AM or an AM analog (%).
# in vivo [3] = assay: in vivo
# Experimental: Seven-week-old male Wistar rats were prepared, and grown with normal feeds. To determine plasma AM concentrations, 50 nmol/kg of AM or an AM analog was subcutaneously administered. A peripheral blood sample was collected from the tail vein into a Kantan tube® (containing heparin Na, Eiken Chemical Co., Ltd., Tochigi, Japan) at predetermined times (0, 15, 30, 60, and 120 minutes after administration). The tube was centrifuged at 2,000×g. Plasma was collected from the tube, and transferred into a test tube (containing 21 μg of aprotinin and 0.3 mg of EDTA-2Na) and stored. […] In the figure, the abscissa represents elapsed time after subcutaneous administration (hr), and the ordinate represents concentration in plasma of AM or an AM analog (pM). In addition, maximum concentrations in blood (Cmax) of AM or the AM analogs in rat plasma after subcutaneous administration were calculated.
# in vivo [4] = conditions: male, Wistar, rat, sc, 50 nmol/kg; for AUC: in vivo
# Experimental: as §1
# in vitro [5] = conditions: Experiment VIII; 10^−7 M, 37° C.; 1 hour after the beginning of reaction
# Experimental: The stabilities of the AM analog peptides in serum were evaluated with the same procedure as in Experiment I except the following procedure. […] A reaction mixture containing 4 μL of phosphate buffer, 20 μL of human serum (Sigma-Aldrich Co. LLC, USA), and 14 μL of water was prepared. To the reaction mixture, 2 μL of AM or an AM analog peptide (2×10^−6 M, final concentration: 10^−7 M) was added, and reaction was initiated at 37° C. The reaction was terminated by addition of 160 μL of ELISA buffer to the reaction mixture 0, 1, or 4 hours after the beginning of reaction. […] In the figure, the abscissa represents reaction time (hr), and the ordinate represents concentration in serum of AM or an AM analog (%) represented as relative values to concentration of AM or an AM analog at the beginning of reaction (i.e., 0 hours after the beginning of reaction).
# [6] = target: AM type 1 receptor (AMI receptor) (UniProt Q16602 23-461; O60895 43-175, limits assumed); assay: cell-based or functional assay
# AM type 1 receptor (AMI receptor), sequence (Q16602 23-461 limits assumed, chain 1 of 2): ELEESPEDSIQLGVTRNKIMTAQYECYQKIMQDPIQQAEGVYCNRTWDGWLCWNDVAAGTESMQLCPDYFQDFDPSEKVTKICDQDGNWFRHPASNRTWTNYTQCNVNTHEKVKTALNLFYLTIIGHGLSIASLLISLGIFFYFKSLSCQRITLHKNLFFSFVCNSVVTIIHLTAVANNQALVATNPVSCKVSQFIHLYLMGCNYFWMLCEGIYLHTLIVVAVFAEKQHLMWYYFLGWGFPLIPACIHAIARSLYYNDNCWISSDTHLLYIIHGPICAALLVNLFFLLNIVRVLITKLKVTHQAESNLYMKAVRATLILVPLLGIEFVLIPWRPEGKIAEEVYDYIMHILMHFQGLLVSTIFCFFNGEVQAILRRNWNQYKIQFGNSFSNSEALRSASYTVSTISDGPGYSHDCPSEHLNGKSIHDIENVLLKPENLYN
# AM type 1 receptor (AMI receptor), sequence (O60895 43-175 limits assumed, chain 2 of 2): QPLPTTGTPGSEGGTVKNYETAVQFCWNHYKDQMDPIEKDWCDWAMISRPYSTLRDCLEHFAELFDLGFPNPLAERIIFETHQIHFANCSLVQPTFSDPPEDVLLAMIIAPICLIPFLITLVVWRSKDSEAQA
logarithmic values of 50%-effective concentration (pEC50) for intracellular cAMP concentration-increasing activity [6] [pEC50],Molecule,detection in rat plasma after subcutaneous administration [1],AUC (in vivo [4]) [nM·h],Cmax (in vivo [4]; plasma) [nM],further results
–,"CC[C@H](C)[C@H](NC(=O)[C@H](CCC(N)=O)NC(=O)[C@H](Cc1c[nH]cn1)NC(=O)[C@H](C)NC(=O)[C@H](CC(C)C)NC(=O)[C@H](CCCCN)NC(=O)[C@H](CCC(N)=O)NC(=O)[C@@H](NC(=O)[C@@H](NC(=O)[C@@H]1CSSC[C@H](NC(=O)CNC(=O)[C@H](Cc2ccccc2)NC(=O)[C@@H](N)CO)C(=O)N[C@@H](CCCNC(=N)N)C(=O)N[C@@H](Cc2ccccc2)C(=O)NCC(=O)N[C@@H]([C@@H](C)O)C(=O)N1)[C@@H](C)O)C(C)C)C(=O)N[C@@H](Cc1ccc(O)cc1)C(=O)N[C@@H](CCC(N)=O)C(=O)N[C@@H](Cc1ccccc1)C(=O)N[C@H](C(=O)N[C@@H](CC(=O)O)C(=O)N[C@@H](CCCCN)C(=O)N[C@@H](CC(=O)O)C(=O)N[C@@H](CCCCN)C(=O)N[C@@H](CC(=O)O)C(=O)N[C@@H](CC(N)=O)C(=O)N[C@H](C(=O)N[C@@H](C)C(=O)N1CCC[C@H]1C(=O)N[C@@H](C)C(=O)N[C@@H](CO)C(=O)N[C@@H](CCCCN)C(=O)N[C@H](C(=O)N[C@@H](CO)C(=O)N1CCC[C@H]1C(=O)N[C@@H](CCC(N)=O)C(=O)NCC(=O)N[C@@H](Cc1ccc(O)cc1)C(N)=O)[C@@H](C)CC)C(C)C)[C@@H](C)O [[Ala-44]hAM(13-52), SFGCRFGTCTVQKLAHQIYQFTDKDKDNVAPASKISPQGY-CONH2] (H-SFGCRFGTCTVQKLAHQIYQFTDKDKDNVAPASKISPQGY-NH2; disulfide 4-9; N-terminus assumed)",detected in rat plasma 15 minutes after administration,0.578,1.17,"Cmax relative to that of hAM(1-52) ([1]; rat): ≥ 100 times; change in amount with the lapse of reaction time in reaction mixture with serum (in vitro [2]; Experiment IV, up to 240 minutes): almost no decrease or only slight decrease in amount; remaining at 4 h (in vitro [2]; serum, pH 7.1): 96.4%; detection in rat plasma after subcutaneous administration (in vivo [3]; 50 nmol/kg subcutaneous, Experiment X): detected in rat plasma 15 minutes after administration; Cmax (in vivo [3]; male, Wistar, rat, in vivo, sc, 50 nmol/kg): 0.777 nM; half-life (in vivo [4]; plasma): 1.37 h"
–,"CC[C@H](C)[C@H](NC(=O)[C@H](CCC(N)=O)NC(=O)[C@H](Cc1c[nH]cn1)NC(=O)[C@H](C)NC(=O)[C@H](CC(C)C)NC(=O)[C@H](CCCCN)NC(=O)[C@H](CCC(N)=O)NC(=O)[C@@H](NC(=O)[C@@H](NC(=O)[C@@H]1CSSC[C@H](NC(=O)CNC(=O)[C@H](Cc2ccccc2)NC(=O)[C@@H](N)CO)C(=O)N[C@@H](CCCNC(=N)N)C(=O)N[C@@H](Cc2ccccc2)C(=O)NCC(=O)N[C@@H]([C@@H](C)O)C(=O)N1)[C@@H](C)O)C(C)C)C(=O)N[C@@H](Cc1ccc(O)cc1)C(=O)N[C@@H](CCC(N)=O)C(=O)N[C@@H](Cc1ccccc1)C(=O)N[C@H](C(=O)N[C@@H](CC(=O)O)C(=O)N[C@@H](CCCCN)C(=O)N[C@@H](CC(=O)O)C(=O)N[C@@H](CCCCN)C(=O)N[C@@H](CC(=O)O)C(=O)N[C@@H](CC(N)=O)C(=O)N[C@H](C(=O)N[C@@H](C)C(=O)N1CCC[C@H]1C(=O)N[C@@H](CCCNC(=N)N)C(=O)N[C@@H](CO)C(=O)N[C@@H](CCCCN)C(=O)N[C@H](C(=O)N[C@@H](CO)C(=O)N1CCC[C@H]1C(=O)N[C@@H](CCC(N)=O)C(=O)NCC(=O)N[C@@H](Cc1ccc(O)cc1)C(N)=O)[C@@H](C)CC)C(C)C)[C@@H](C)O [hAM(13-52), SFGCRFGTCTVQKLAHQIYQFTDKDKDNVAPRSKISPQGY-CONH2, reference compound]",hardly detected,0.0832,0.165,"presence in reaction mixture with human serum (in vitro [5]): substantially disappeared; concentration of AM or AM analog in reaction mixture with serum (in vitro [2]; Experiment IV, 240 minutes after the beginning of reaction): below the detection limit; residual rate in reaction mixture with serum (in vitro [2]; Experiment IV, 240 minutes vs 0 minutes after the beginning of reaction): 0.2%"
8.29,B1,–,–,–,–
7.96,B2,–,–,–,–
8.71,B3,–,–,–,–
